Source: ChEMBL document CHEMBL1157113, “Insulin-like growth factor-1 receptor (IGF-1R) kinase inhibitors: SAR of a series of 3-[6-(4-substituted-piperazin-1-yl)-4-methyl-1H-benzimidazol-2-yl]-1H-pyridine-2-one” (Bioorg Med Chem Lett, 2010)

Legend:
Assay type in all cases: ADME, organism-based
[1] = AUC (0 to 4 hrs) in mouse at 20 mg/kg; set-up: time < 4 hr, dose 20 mg/kg; conditions: plasma
[2] = Volume of distribution at steady state in rat at 5 mg/kg, iv and 75 mg/kg, po; conditions: in vivo, read-out: Vdss
[3] = Oral bioavailability in mouse at 75 mg/kg; conditions: in vivo
[4] = Oral bioavailability in rat at 75 mg/kg; conditions: in vivo
[5] = Half life in mouse at 5 mg/kg, iv and 75 mg/kg, po; conditions: in vivo
[6] = Total clearance in rat at 5 mg/kg, iv and 75 mg/kg, po; conditions: in vivo
[7] = Half life in rat at 5 mg/kg, iv and 75 mg/kg, po; conditions: in vivo
[8] = Total clearance in mouse at 5 mg/kg, iv and 75 mg/kg, po; conditions: in vivo
[9] = Volume of distribution at steady state in mouse at 5 mg/kg, iv and 75 mg/kg, po; conditions: in vivo, read-out: Vdss

CC(=O)N1CCN(c2cc(C)c3nc(-c4c(NC[C@@H](O)c5cccc(Cl)c5)cc[nH]c4=O)[nH]c3c2)CC1
AUC(0-t) at 4 h [1]: 3.1 µM·h

Cc1cc(N2CCN(CCCF)CC2)cc2[nH]c(-c3c(NC[C@@H](O)c4cccc(Cl)c4)cc[nH]c3=O)nc12
AUC(0-t) at 4 h [1]: 11.4 µM·h

Cc1cc(N2CCN(S(C)(=O)=O)CC2)cc2[nH]c(-c3c(NC[C@@H](O)c4cccc(Cl)c4)cc[nH]c3=O)nc12
AUC(0-t) at 4 h [1]: 7.2 µM·h

Cc1cc(N2CCOCC2)cc2[nH]c(-c3c(NC[C@@H](O)c4cccc(Cl)c4)cc[nH]c3=O)nc12
AUC(0-t) at 4 h [1]: 50 µM·h

Cc1cc(N2CCNCC2)cc2[nH]c(-c3c(NC[C@@H](O)c4cccc(Cl)c4)cc[nH]c3=O)nc12
AUC(0-t) at 4 h [1]: 26.5 µM·h

Cc1cc(N2CCN(CC#N)CC2)cc2[nH]c(-c3c(NC[C@@H](O)c4cccc(Cl)c4)cc[nH]c3=O)nc12
AUC(0-t) at 4 h [1]: 10.3 µM·h

Cc1cc(N2CCN(C(=O)CCCF)CC2)cc2[nH]c(-c3c(NC[C@@H](O)c4cccc(Cl)c4)cc[nH]c3=O)nc12
AUC(0-t) at 4 h [1]: 4.5 µM·h

Cc1cc(N2CCN(CCF)CC2)cc2[nH]c(-c3c(NC[C@@H](O)c4cccc(Cl)c4)cc[nH]c3=O)nc12
AUC(0-t) at 4 h [1]: 17.7 µM·h

COC(=O)N1CCN(c2cc(C)c3nc(-c4c(NC[C@@H](O)c5cccc(Cl)c5)cc[nH]c4=O)[nH]c3c2)CC1
AUC(0-t) at 4 h [1]: 57.1 µM·h

CCN1CCN(c2cc(C)c3nc(-c4c(NC[C@@H](O)c5cccc(Cl)c5)cc[nH]c4=O)[nH]c3c2)CC1
AUC(0-t) at 4 h [1]: 1 µM·h

COCCN1CCN(c2cc(C)c3nc(-c4c(NC[C@@H](O)c5cccc(Cl)c5)cc[nH]c4=O)[nH]c3c2)CC1
Vd [2]: 2.9 L/kg | bioavailability [3]: 26% | bioavailability [4]: 26% | half-life [5]: 2.9 h | clearance [6]: 27.8 mL/min/kg | half-life [7]: 1.9 h | clearance [8]: 25.2 mL/min/kg | Vd [9]: 4.9 L/kg | AUC(0-t) at 4 h [1]: 11.1 µM·h

CCOC(=O)N1CCN(c2cc(C)c3nc(-c4c(NC[C@@H](O)c5cccc(Cl)c5)cc[nH]c4=O)[nH]c3c2)CC1
AUC(0-t) at 4 h [1]: 25.3 µM·h

CNC(=O)CN1CCN(c2cc(C)c3nc(-c4c(NC[C@@H](O)c5cccc(Cl)c5)cc[nH]c4=O)[nH]c3c2)CC1
AUC(0-t) at 4 h [1]: 1.6 µM·h

Cc1cc(N2CCN(CC(=O)NCCF)CC2)cc2[nH]c(-c3c(NC[C@@H](O)c4cccc(Cl)c4)cc[nH]c3=O)nc12
AUC(0-t) at 4 h [1]: 1.4 µM·h

Cc1cc(N2CCN(C(=O)OC(C)(C)C)CC2)cc2[nH]c(-c3c(NC[C@@H](O)c4cccc(Cl)c4)cc[nH]c3=O)nc12
AUC(0-t) at 4 h [1]: 8.3 µM·h

Cc1cc(N2CCN(CCC#N)CC2)cc2nc(-c3c(NC[C@@H](O)c4cccc(Cl)c4)cc[nH]c3=O)[nH]c12
AUC(0-t) at 4 h [1]: 22.1 µM·h

Cc1cc(N2CCN(C)CC2)cc2[nH]c(-c3c(NC[C@@H](O)c4cccc(Cl)c4)cc[nH]c3=O)nc12
AUC(0-t) at 4 h [1]: 3.4 µM·h
